In patent publication US20250085201A1, “SUBSTITUTED QUADRUPOLAR FLUORESCENT DYES FOR LIVE CELL IMAGING” (Northwestern University, priority 2023, published 2025):

Tests used:
Format in all cases: physicochemical
[1] = Absolute fluorescence quantum yield (integrating sphere); conditions: in MeCN
Protocol: (§1) Fluorescent dyes were dissolved in the appropriate solvents to afford 1 mM solutions prior to spectroscopic analysis. A portion of 30 μL of a 1 mM solution was diluted by adding a selected solvent to a sample with a total volume of 3000 μL, affording a 1×10^−5 M solution. UV/Vis Absorption spectra were recorded in glass cuvettes on a UV-3600 Shimadzu spectrophotometer. Steady-state emission spectra were acquired in quartz cuvettes with optical path-lengths of 10 mm containing the solution being analyzed using a HORIBA Fluoromax4 spectrofluorometer, which was equipped with an integrating sphere for determining the absolute photoluminescence quantum yield.
(§2) Steady-state and time-resolved emission spectra for dyes 1-6, 7·2PF6 and 9·4PF6 were acquired using a HORIBA Fluorolog-3 spectrofluorometer, equipped with a time-correlated single photon counting (TCSPC) module (diode laser excitation at λ=375 nm) and an integrating sphere, which was used for absolute photo-luminescence quantum yield determinations. Picosecond time-resolved fluorescence measurements were recorded using a commercial direct-diode-pumped 100 kHz amplifier (Spirit 1040-HE, Spectra-Physics), producing a fundamental beam of 1040 nm (350 fs, 12 W) which was used to pump a non-collinear optical parametric amplifier (Spirit-NOPA, SpectraPhysics) capable of delivering tunable, high-repetition-rate pulses with pulse widths as short as sub-20 fs. Dyes 1-6, 7·2PF6 and 9·4PF6 were excited with 350 nm, 2 nJ laser pulses. Fluorescence was detected using a Hamamatsu C4780 Streakscope as previously described in the literature. Samples were prepared in 2-mm quartz cuvettes. All data were acquired in the single-photon-counting mode using the Hamamatsu HPD-TA software. The temporal resolution was approximately 2% of the sweep window. Single wavelength kinetic analysis was performed using a nonlinear least-squares fit to a sum of exponentials convoluted with an instrument response function. Visible and near-infrared femtosecond and nanosecond transient absorption (fsTA and nsTA, respectively) spectroscopies were performed following descriptions already recorded in the literature. The 330 nm, ˜100 fs pump pulses were generated at 1 μJ per pulse using a commercial collinear optical parametric amplifier (TOPAS-Prime, Light-Conversion, Ltd.); 414-nm pump pulses were obtained by second-harmonic generation of the 828 nm fundamental. The pump polarization was randomized using a commercial depolarizer (DPU-25-A, Thorlabs, Inc.) to eliminate any orientational dynamics resulting from the experiment. Spectra were collected on commercial spectrometers (customized Ultrafast Systems Helios and EOS spectrometers, for fsTA and nsTA, respectively) for each time window. All samples were stirred to avoid localized heating or degradation effects. The optical density was maintained at 0.6 for all samples.
Steady-state and time-resolved emission spectra for dyes 7·2PF6 and 9·4PF6 were acquired using a HORIBA Fluorolog-3 spectrofluorometer, equipped with a time-correlated single photon counting (TCSPC) module (diode laser excitation at =375 nm) and an integrating sphere, which was used for absolute photo-luminescence quantum yield determinations. Picosecond time-resolved fluorescence measurements were recorded using a commercial direct-diode-pumped 100 kHz amplifier (Spirit 1040-HE, Spectra-Physics), producing a fundamental beam of 1040 nm (350 fs, 12 W) which was used to pump a non-collinear optical parametric amplifier (Spirit-NOPA, SpectraPhysics) capable of delivering tunable, high-repetition-rate pulses with pulse widths as short as sub-20 fs. The samples 7·2PF6 and 9·4PF6 were excited with […], 2 nJ laser pulses. Fluorescence was detected using a Hamamatsu C4780 Streakscope as previously described in the literature.^71 Samples were prepared in 2-mm quartz cuvettes. All data were acquired in the single-photon-counting mode using the Hamamatsu HPD-TA software. […]

[2] = Transient absorption (fsTA/nsTA) and time-resolved fluorescence spectroscopy; conditions: in MeCN; for non-radiative decay rate constant kNR: kNR = kobs(1 − ΦF); for radiative decay rate constant kR: kR = kobsΦF
Text: The excited-state properties of these quadrupolar dyes were investigated using transient absorption (TA) spectroscopy. The TA data of dyes 1-4 and 6 in MeCN with lex=350 nm (FIGS. 9-12 and 15) show similar spectra with the same general electronic evolution, though with differing kinetics. Following excitation, strong excited-state absorption features appear between ˜450-500 nm along with a strong single peak in the near-infrared region, both of which are associated with Sn←S1 absorptions. The visible bands redshift over the following ˜100 ps, while the near-infrared band peaks first blueshift in the initial ˜10 ps before settling. These near-infrared absorption bands are similar to those observed^59,60 in extended bipyridinium compounds. Following these shifts, the excited states decay via emission with lifetimes between 3-4 ns as confirmed by time-resolved fluorescence (TRF) spectroscopy. The spectral shape of the transient species is generally maintained throughout their lifetimes, implying that the dynamics in each dye all occur on a single electronic excited state (S1) prior to emission. The spectral shifts at early times may arise due to excited-state symmetry breaking^77-78 in the quadrupolar dyes, wherein fluctuations in the instantaneous electrostatic environment afforded by the solvent transiently favor wavefunction localization on one side of the symmetric molecule, creating an excited state with a large dipole moment that is associated with the Stokes shift observed^79 in the fluorescence spectra. This localization can lead to changes in the transient absorption spectra as a result of the breakdown^42,80 of the Laporte rule. The shifts at longer times may arise from solvent or structural relaxation of the dyes.
as §2, with “samples. […]” for “samples.”

[3] = Steady-state UV/Vis absorption and fluorescence emission spectra; conditions: THF, 10 μM
Protocol: Fluorescent dyes 1-6, 7·2PF6, 8·2PF6, 9·4PF6 and 9·4Cl were dissolved in THF (1-5), MeCN (6, 7·2PF6, 8·2PF6 and 9.4PF6) and H2O (9.4Cl), respectively, to afford 10 μM solutions prior to spectroscopic analysis. For comparison, their normalized (i) UV/Vis absorption (FIG. 2) and (ii) the fluorescence emission (FIG. 3) spectra of quadrupolar dyes are overlayed, displaying a large range of S1 absorbance and emission maxima, which rely highly on their quadrupolarity that is correlated to the electron-deficiency of the ARs.
as §1

[4] = Transient absorption (fsTA/nsTA) and time-resolved fluorescence spectroscopy; conditions: in PhMe
[5] = Solubility (qualitative); conditions: PF6− salt; e.g. MeCN, Me2CO, DMF
[6] = Absolute fluorescence quantum yield (integrating sphere); conditions: 414 nm excitation

CCCCCCCCOc1cc(-c2ccc(F)cc2)c(OCCCCCCCC)cc1-c1ccc(F)cc1 [Dye 1]
Quantum Yield (ΦF) [1]: 0.13
rate constant k1 from TA data [2]: (5.4 ± 0.6 ps)^−1 (ps)^−1
rate constant k2 from TA data [2]: (83 ± 7 ps)^−1 (ps)^−1
rate constant k3 from TA data [2]: (3.38 ± 0.03 ns)^−1 (ns)^−1
rate constant k4 from TA data [2]: (155 ± 3 ns)^−1 (ns)^−1
non-radiative decay rate constant kNR [2]: (3.89 ± 0.02 ns)^−1 (ns)^−1
UV absorption band centre [3]: 316 nm
emission λem [3]: 380 nm

CCCCCCCCOc1cc(-c2ccc([N+](=O)[O-])cc2)c(OCCCCCCCC)cc1-c1ccc([N+](=O)[O-])cc1 [Dye 5]
Quantum Yield (ΦF) [1]: <0.005
rate constant k1 from TA data [2]: (4.3 ± 0.3 ps)^−1 (ps)^−1
rate constant k2 from TA data [2]: (28 ± 2 ps)^−1 (ps)^−1
rate constant k3 from TA data [2]: (102.7 ± 0.3 ns)^−1 (ns)^−1
CT state decay back to the ground state ([2]; excited at 350 nm): 102 ns
initially excited state (S1) decay time ([2]; excited at 350 nm): 4.3±0.3 ps
non-radiative decay rate constant kNR ([2]; kobs = k1): >(4 ps)^−1 (ps)^−1
radiative decay rate constant kR [2]: <(0.9 ns)^−1 (ns)^−1
triplet state lifetime (diffusional quenching-limited) ([4]; deaerated solution): 1 µs
CT state decay to triplet state ([4]; excited at 350 nm): 18 ns
S1 state decay time ([4]; excited at 350 nm): 7.9±0.3 ps

CCCCCCCCOc1cc(-c2ccc(C(=O)OC)cc2)c(OCCCCCCCC)cc1-c1ccc(C(=O)OC)cc1 [Dye 4]
Quantum Yield (ΦF) [1]: 0.78
rate constant k1 from TA data [2]: (0.7 ± 0.3 ps)^−1 (ps)^−1
rate constant k2 from TA data [2]: (132 ± 7 ps)^−1 (ps)^−1
rate constant k3 from TA data [2]: (3.80 ± 0.01 ns)^−1 (ns)^−1
rate constant k4 from TA data [2]: (210 ± 2 ns)^−1 (ns)^−1
non-radiative decay rate constant kNR [2]: (17.3 ± 0.4 ns)^−1 (ns)^−1

CCCCCCCCOc1cc(-c2ccc(C#N)cc2)c(OCCCCCCCC)cc1-c1ccc(C#N)cc1 [Dye 3]
Quantum Yield (ΦF) [1]: 0.81
rate constant k1 from TA data [2]: (0.8 ± 0.3 ps)^−1 (ps)^−1
rate constant k2 from TA data [2]: (99 ± 2 ps)^−1 (ps)^−1
rate constant k3 from TA data [2]: (4.23 ± 0.02 ns)^−1 (ns)^−1
rate constant k4 from TA data [2]: (314 ± 1 ns)^−1 (ns)^−1
non-radiative decay rate constant kNR [2]: (22.3 ± 0.6 ns)^−1 (ns)^−1
radiative decay rate constant kR [2]: (5.22 ± 0.03 ns)^−1 (ns)^−1

CCCCCCCCOc1cc(-c2ccc(C(F)(F)F)cc2)c(OCCCCCCCC)cc1-c1ccc(C(F)(F)F)cc1 [Dye 2]
Quantum Yield (ΦF) [1]: 0.56
rate constant k1 from TA data [2]: (1.4 ± 0.3 ps)^−1 (ps)^−1
rate constant k2 from TA data [2]: (85 ± 2 ps)^−1 (ps)^−1
rate constant k3 from TA data [2]: (3.16 ± 0.01 ns)^−1 (ns)^−1
rate constant k4 from TA data [2]: (150 ± 2 ns)^−1 (ns)^−1
non-radiative decay rate constant kNR [2]: (7.2 ± 0.1 ns)^−1 (ns)^−1
radiative decay rate constant kR [2]: (5.64 ± 0.05 ns)^−1 (ns)^−1

COc1cc2c(OC)cc1-c1cc[n+](cc1)Cc1ccc(cc1)C[n+]1ccc(cc1)-c1cc(OC)c(cc1OC)-c1cc[n+](cc1)Cc1ccc(cc1)C[n+]1ccc-2cc1 [9·4PF6]
Quantum Yield (ΦF) [1]: 0.28
excited-state (emissive) lifetime [2]: 3.45±0.01 ns
rate constant k1 from TA data [2]: (1.4 ± 0.3 ps)^−1 (ps)^−1
rate constant k2 from TA data [2]: (188 ± 4 ps)^−1 (ps)^−1
rate constant k3 from TA data [2]: (3.45 ± 0.01 ns)^−1 (ns)^−1
rate constant k4 from TA data [2]: (450 ± 70 ns)^−1 (ns)^−1
non-radiative decay rate constant kNR [2]: (4.79 ± 0.03 ns)^−1 (ns)^−1
radiative decay rate constant kR [2]: (12.3 ± 0.2 ns)^−1 (ns)^−1
solubility in polar organic solvents [5]: readily soluble
ΦF in the solid-state (powder) [6]: 0.030±0.005

COc1cc(-c2ccncc2)c(OC)cc1-c1ccncc1 [Dye 6]
Quantum Yield (ΦF) [1]: 0.63
rate constant k1 from TA data [2]: (0.6 ± 0.3 ps)^−1 (ps)^−1
rate constant k2 from TA data [2]: (52 ± 1 ps)^−1 (ps)^−1
rate constant k3 from TA data [2]: (4.05 ± 0.02 ns)^−1 (ns)^−1
rate constant k4 from TA data [2]: (163 ± 2 ns)^−1 (ns)^−1
non-radiative decay rate constant kNR [2]: (11.0 ± 0.2 ns)^−1 (ns)^−1
radiative decay rate constant kR [2]: (6.43 ± 0.05 ns)^−1 (ns)^−1
